This is an account of results in ChEMBL document CHEMBL1154348, “Arginine-pyrimidine conjugates with therapeutic and prophylactic activity in lethal bacterial infections” (Bioorg Med Chem Lett, 2009).

Series [1] is described as follows: Therapeutic efficacy against Escherichia coli infected lethal mouse sepsis model assessed as survival at 30 mg/kg, ip administered 0.5 hrs and 4 hrs post infection. It counts as organism-based. Also noted: dose 30 mg/kg, route intraperitoneal. The settings on record: in vivo.
The nature of series [2]: Therapeutic efficacy against Staphylococcus aureus infected lethal mouse sepsis model assessed as survival at 30 mg/kg, ip administered 0.5 hrs and 4 hrs post infection. The settings on record: in vivo. It counts as organism-based. On the set-up: dose 30 mg/kg, route intraperitoneal.
The test system of series [3] is Mus musculus. As to the kind of experiment: Subchronic toxicity in mouse up to 450 mg/kg, ip after 5 days. Also noted: dose 450 mg/kg, route intraperitoneal. The settings on record: in vivo, 120 h. It counts as organism-based.
The subject of series [4] is Escherichia coli. Description: Prophylactic efficacy against Escherichia coli infected lethal mouse sepsis model assessed as survival at 50 mg/kg, ip administered 0.5 hrs before infection. The series is classed as functional. The settings on record: route intraperitoneal.
Series [5] can be described thus: Half life in mouse at 100 mg/kg, ip after 30 mins. Also noted: dose 100 mg/kg, route intraperitoneal. The settings on record: in vivo. The series is classed as ADME, organism-based.
Series [6] concerns Escherichia coli. Description: Antibacterial activity against Escherichia coli infected lethal mouse sepsis model assessed as reduction in bacterial load in mouse blood at 50 mg/kg, ip administered as single dose 0.5 hrs post infection measured after 5 hrs. It counts as functional. The settings on record: route intraperitoneal.
Series [7] relates to Escherichia coli. Description: Antibacterial activity against Escherichia coli. The series is classed as functional.
Series [8] is described as follows: Cmax in mouse at 100 mg/kg, ip after 30 mins. It counts as ADME, organism-based. Also noted: dose 100 mg/kg, route intraperitoneal. The settings on record: in vivo.
Series [9] concerns Mus musculus. As to the kind of experiment: Acute toxicity in mouse up to 450 mg/kg, ip after 5 days. It counts as organism-based. Also noted: dose 450 mg/kg, route intraperitoneal. The settings on record: in vivo, 120 h.
The subject of series [10] is Escherichia coli. Description: Prophylactic efficacy against Escherichia coli infected lethal mouse sepsis model assessed as survival at 50 mg/kg, ip administered 2 hrs before infection. It counts as functional. The settings on record: route intraperitoneal.
In series [11] the test system is Streptococcus pyogenes. As to the kind of experiment: Antibacterial activity against Streptococcus pyogenes infected in cyclophosphamide-treated immunocompromized mouse assessed as inhibition of muscle infection. The settings on record: Muscle tissue. The series is classed as functional, organism-based.
The test system of series [12] is Pseudomonas aeruginosa. Description: Antibacterial activity against Pseudomonas aeruginosa infected in cyclophosphamide-treated immunocompromized mouse assessed as inhibition of wound infection. The series is classed as functional, organism-based.
The subject of series [13] is Plasma. As to the kind of experiment: Stability in mouse plasma after 3 hrs. It counts as ADME, cell-free.
Series [14] relates to Escherichia coli. Description: Prophylactic efficacy against Escherichia coli infected lethal mouse sepsis model assessed as survival at 50 mg/kg, ip administered 3 hrs before infection. The series is classed as functional. The settings on record: route intraperitoneal.
Series [15] deals with Escherichia coli. Description: Prophylactic efficacy against Escherichia coli infected lethal mouse sepsis model assessed as survival at 50 mg/kg, ip administered 1 hr before infection. The series is classed as functional. The settings on record: route intraperitoneal.
The test system of series [16] is Escherichia coli. Description: Antibacterial activity against Escherichia coli infected lethal mouse sepsis model assessed as reduction in bacterial load in mouse blood at 50 mg/kg, ip administered 0.5 hrs and 4 hrs post infection measured after 5 hrs. It counts as functional. The settings on record: route intraperitoneal.
In series [17] the test system is Staphylococcus aureus. As to the kind of experiment: Antibacterial activity against Staphylococcus aureus. It counts as functional.

The source made the active and inactive calls. The rule behind the calls is not given here.

For orientation: half-life means the time in which the quantity being followed falls by half. What is called MIC is the lowest concentration that inhibits growth of the organism. A word on the Cmax: it is the highest concentration seen after dosing.

As to `CN(CCCNC(=O)[C@@H](N)CCCNC(=N)N)c1ncccn1`, the Efficacy in series [1] and in [2] was 40% each time.
For `CN(CCCN(C)c1ncccn1)C(=O)[C@@H](N)CCCNC(=N)N`, the Activity result in [3] and in series [9] was “Non-toxic” in each case. Besides, the Efficacy in series [4] came to 80%; in series [10], 60%; in series [14] it was 40%; in series [15], 80%; in series [1] it was 80%; in series [2] it was 60%. The half-life in series [5] is 1 h. In addition, the CFU in series [6] was determined as 2.7 ×10³ /ml; in series [16], 3.7 ×10² /ml. Further, the MIC in series [7] and in series [17] was above 250 µg/mL throughout. The compound further came in with a Cmax in series [8] of 56 µg/mL. In addition, the outcome in [11] and in [12] was inactive. The Stability result in series [13] is “Stable”.
On to `O=C(O)c1cn(C2CC2)c2cc(N3CCNCC3)c(F)cc2c1=O` [CIPROFLOXACIN], for which the Efficacy in series [1] was determined as 60%; in series [2], 40%.
